Test results from PubChem BioAssay AID248 (DTP/NCI, 2004).
Several values for one entry are separate records, joined by “and”; a condition that tells them apart may be missing. Equal entries are not always repeated. Toxic doses and inconclusive results are not listed.

Tested on: L1210 leukemia ip in BDF1 mice, survival T/C
Experiment: NCI In Vivo Anticancer Drug Screen. Data for tumor model L1210 Leukemia (intraperitoneal) in B6D2F1 (BDF1) mice
Settings: endpoint: mean survival time, higher = longer survival
Procedure, shortened: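 In this screen, tumor-bearing mice given compound are compared to those given vehicle, and their survival values are reported as a treated-to-control quotient.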

[1] = dose: 100.0 mg/kg/injection, schedule: Q04DX003 (ip), vehicle: Klucel (hydroxypropylcellulose) (HPC)
[2] = dose: 200.0 mg/kg/injection, schedule: Q04DX003 (ip), vehicle: Klucel (hydroxypropylcellulose) (HPC)
[3] = dose: 400.0 mg/kg/injection, schedule: Q04DX003 (ip), vehicle: Klucel (hydroxypropylcellulose) (HPC)
[4] = dose: 100.0 mg/kg/injection, schedule: Q04DX003 (ip), vehicle: saline with Tween-80
[5] = dose: 200.0 mg/kg/injection, schedule: Q04DX003 (ip), vehicle: saline with Tween-80
[6] = dose: 400.0 mg/kg/injection, schedule: Q04DX003 (ip), vehicle: saline with Tween-80
[7] = dose: 100.0 mg/kg/injection, schedule: Q04DX002 (ip), vehicle: Klucel (hydroxypropylcellulose) (HPC)
[8] = dose: 200.0 mg/kg/injection, schedule: Q04DX002 (ip), vehicle: Klucel (hydroxypropylcellulose) (HPC)
[9] = dose: 100.0 mg/kg/injection, schedule: Q01DX009 (ip), vehicle: Klucel (hydroxypropylcellulose) (HPC)
[10] = dose: 200.0 mg/kg/injection, schedule: Q01DX009 (ip), vehicle: Klucel (hydroxypropylcellulose) (HPC)
[11] = dose: 400.0 mg/kg/injection, schedule: Q01DX009 (ip), vehicle: Klucel (hydroxypropylcellulose) (HPC)
[12] = dose: 100.0 mg/kg/injection, schedule: Q04DX003 (ip), vehicle: saline
[13] = dose: 200.0 mg/kg/injection, schedule: Q04DX003 (ip), vehicle: saline
[14] = dose: 400.0 mg/kg/injection, schedule: Q04DX003 (ip), vehicle: saline
[15] = dose: 100.0 mg/kg/injection, schedule: Q01DX005 (ip), vehicle: saline
[16] = dose: 200.0 mg/kg/injection, schedule: Q01DX005 (ip), vehicle: saline

O=[N+]([O-])c1ccc(C=Nc2ccc(Cc3ccncc3)cc2)cc1
T/C (dose: 100.0 mg/kg/injection, schedule: Q01DX009 (ip), vehicle: carboxymethylcellulose (CMC)): 93 % of control and 100 % of control
T/C (dose: 100.0 mg/kg/injection, schedule: Q04DX002 (ip), vehicle: carboxymethylcellulose (CMC)): 104 % of control
T/C (dose: 100.0 mg/kg/injection, schedule: Q04DX003 (ip), vehicle: carboxymethylcellulose (CMC)): 101 % of control
T/C (dose: 200.0 mg/kg/injection, schedule: Q01DX009 (ip), vehicle: carboxymethylcellulose (CMC)): 97 % of control and 98 % of control
T/C (dose: 200.0 mg/kg/injection, schedule: Q04DX002 (ip), vehicle: carboxymethylcellulose (CMC)): 98 % of control
T/C (dose: 200.0 mg/kg/injection, schedule: Q04DX003 (ip), vehicle: carboxymethylcellulose (CMC)): 94 % of control
T/C (dose: 400.0 mg/kg/injection, schedule: Q01DX009 (ip), vehicle: carboxymethylcellulose (CMC)): 95 % of control and 91 % of control
T/C (dose: 400.0 mg/kg/injection, schedule: Q04DX002 (ip), vehicle: carboxymethylcellulose (CMC)): 93 % of control
T/C (dose: 400.0 mg/kg/injection, schedule: Q04DX003 (ip), vehicle: carboxymethylcellulose (CMC)): 100 % of control

NC(N)=NC=O
T/C (dose: 100.0 mg/kg/injection, schedule: Q04DX002 (ip), vehicle: saline with Tween-80): 105 % of control
T/C (dose: 200.0 mg/kg/injection, schedule: Q04DX002 (ip), vehicle: saline with Tween-80): 98 % of control

Cc1c2cnccc2c(C)c2c1c1ccccc1n2CCCC#N
T/C [1]: 105 % of control
T/C [2]: 102 % of control
T/C [3]: 109 % of control

Fc1ccccc1CSc1ncnc2nc[nH]c12
T/C (dose: 40.0 mg/kg/injection, schedule: Q01DX009 (ip), vehicle: saline): 115 % of control
T/C (dose: 150.0 mg/kg/injection, schedule: Q01DX009 (ip), vehicle: saline): 157 % of control
T/C (dose: 175.0 mg/kg/injection, schedule: Q01DX001 (ip), vehicle: saline): 117 % of control and 118 % of control
T/C (dose: 265.0 mg/kg/injection, schedule: Q01DX001 (ip), vehicle: saline): 112 % of control and 120 % of control
T/C (dose: 400.0 mg/kg/injection, schedule: Q01DX001 (ip), vehicle: saline): 122 % of control
T/C (dose: 600.0 mg/kg/injection, schedule: Q01DX001 (ip), vehicle: saline): 100 % of control

N#Cc1ccccc1-c1ccccc1C#N
T/C (dose: 100.0 mg/kg/injection, schedule: Q01DX001 (ip), vehicle: carboxymethylcellulose (CMC)): 105 % of control
T/C (dose: 200.0 mg/kg/injection, schedule: Q01DX001 (ip), vehicle: carboxymethylcellulose (CMC)): 107 % of control
T/C (dose: 400.0 mg/kg/injection, schedule: Q01DX001 (ip), vehicle: carboxymethylcellulose (CMC)): 107 % of control

Cc1c([N+](=O)[O-])cc(NC(=O)/C=C\C(=O)O)cc1[N+](=O)[O-]
T/C [4]: 113 % of control
T/C [5]: 113 % of control
T/C [6]: 109 % of control

NC(CCCC(N)C(=O)O)C(=O)O (configuration not stated)
T/C (dose: 12.5 mg/kg/injection, schedule: Q04DX002 (ip), vehicle: saline): 103 % of control
T/C (dose: 25.0 mg/kg/injection, schedule: Q04DX002 (ip), vehicle: saline): 100 % of control
T/C (dose: 50.0 mg/kg/injection, schedule: Q04DX002 (ip), vehicle: Klucel (hydroxypropylcellulose) (HPC)): 96 % of control
T/C (dose: 50.0 mg/kg/injection, schedule: Q04DX002 (ip), vehicle: saline): 93 % of control
T/C [7]: 101 % of control
T/C [8]: 93 % of control

CNc1cc(N)ncn1
T/C (dose: 25.0 mg/kg/injection, schedule: Q01DX Z (ip), vehicle: saline): 90 % of control
T/C (dose: 75.0 mg/kg/injection, schedule: Q01DX Z (ip), vehicle: saline): 93 % of control

O=C(CCCl)N1CCN(C(=O)CCCl)CC1
T/C [9]: 106 % of control
T/C (dose: 100.0 mg/kg/injection, schedule: Q01DX009 (ip), vehicle: saline): 103 % of control
T/C [1]: 100 % of control
T/C (dose: 117.32 mg/kg/injection, schedule: Q01DX009 (ip), vehicle: saline): 119 % of control
T/C (dose: 148.0 mg/kg/injection, schedule: Q01DX Z (ip), vehicle: methylcellulose (MC)): 100 % of control
T/C (dose: 176.0 mg/kg/injection, schedule: Q01DX009 (ip), vehicle: saline): 100 % of control
T/C [10]: 108 % of control
T/C (dose: 200.0 mg/kg/injection, schedule: Q01DX009 (ip), vehicle: saline): 119 % of control
T/C [2]: 99 % of control
T/C (dose: 222.0 mg/kg/injection, schedule: Q01DX Z (ip), vehicle: methylcellulose (MC)): 104 % of control
T/C (dose: 264.0 mg/kg/injection, schedule: Q01DX009 (ip), vehicle: saline): 116 % of control
T/C (dose: 333.0 mg/kg/injection, schedule: Q01DX Z (ip), vehicle: methylcellulose (MC)): 119 % of control
T/C [11]: 122 % of control
T/C (dose: 400.0 mg/kg/injection, schedule: Q01DX009 (ip), vehicle: saline): 161 % of control and 167 % of control
T/C [3]: 121 % of control
T/C (dose: 500.0 mg/kg/injection, schedule: Q01DX Z (ip), vehicle: methylcellulose (MC)): 97 % of control
T/C (dose: 800.0 mg/kg/injection, schedule: Q01DX009 (ip), vehicle: Klucel (hydroxypropylcellulose) (HPC)): 155 % of control

CN=C(NO)c1ccccc1
T/C (dose: 100.0 mg/kg/injection, schedule: Q01DX001 (ip), vehicle: Klucel (hydroxypropylcellulose) (HPC)): 107 % of control
T/C (dose: 200.0 mg/kg/injection, schedule: Q01DX001 (ip), vehicle: Klucel (hydroxypropylcellulose) (HPC)): 98 % of control

COc1ccc(C2NC(=O)c3ccccc3N2)c(OC)c1OC (configuration not stated)
T/C [9]: 105 % of control
T/C [1]: 97 % of control
T/C [10]: 100 % of control
T/C [2]: 101 % of control
T/C [11]: 106 % of control
T/C [3]: 102 % of control

COc1cc(/C=C\C(=O)c2cccc([N+](=O)[O-])c2)cc(OC)c1OC
T/C [7]: 96 % of control
T/C [8]: 89 % of control
T/C (dose: 400.0 mg/kg/injection, schedule: Q04DX002 (ip), vehicle: Klucel (hydroxypropylcellulose) (HPC)): 100 % of control

COc1ccc(C(C#N)CC(=O)c2ccc(OCc3ccccc3)c(OC)c2)cc1OC (configuration not stated)
T/C (dose: 75.0 mg/kg/injection, schedule: Q01DX009 (ip), vehicle: other): 88 % of control
T/C [12]: 90 % of control
T/C (dose: 150.0 mg/kg/injection, schedule: Q01DX009 (ip), vehicle: other): 90 % of control
T/C [13]: 96 % of control
T/C (dose: 300.0 mg/kg/injection, schedule: Q01DX009 (ip), vehicle: other): 95 % of control
T/C [14]: 94 % of control
T/C (dose: 600.0 mg/kg/injection, schedule: Q01DX009 (ip), vehicle: other): 102 % of control

C=CCc1cn(C2OC(COC(=O)c3ccc(Cl)cc3)C(OC(=O)c3ccc(Cl)cc3)C2O)c(=O)[nH]c1=O (configuration not stated)
T/C [15]: 90 % of control
T/C [16]: 91 % of control

NC(=O)Nc1cc(N)cc(NC(N)=O)c1
T/C [12]: 96 % of control
T/C [13]: 107 % of control
T/C [14]: 106 % of control

O=c1[nH]c(=O)n(C2OC(CO)C(O)C2O)cc1CCC(F)(F)F (configuration not stated)
T/C (dose: 50.0 mg/kg/injection, schedule: Q01DX005 (ip), vehicle: saline): 94 % of control
T/C [15]: 109 % of control
T/C [16]: 98 % of control

O=[N+]([O-])c1ccc2nc3c(nc2c1)-c1cccc2cccc-3c12
T/C (dose: 25.0 mg/kg/injection, schedule: Q01DX009 (ip), vehicle: saline with Tween-80): 89 % of control
T/C (dose: 50.0 mg/kg/injection, schedule: Q01DX009 (ip), vehicle: saline with Tween-80): 91 % of control
T/C (dose: 100.0 mg/kg/injection, schedule: Q01DX009 (ip), vehicle: saline with Tween-80): 94 % of control
T/C [4]: 97 % of control
T/C [5]: 97 % of control
T/C [6]: 103 % of control

NC(=S)N/N=C\c1c[nH]c2cc(C(F)(F)F)ccc12
T/C (dose: 5.0 mg/kg/injection, schedule: Q01DX001 (ip), vehicle: carboxymethylcellulose (CMC)): 101 % of control
T/C (dose: 10.0 mg/kg/injection, schedule: Q01DX001 (ip), vehicle: carboxymethylcellulose (CMC)): 95 % of control
T/C (dose: 20.0 mg/kg/injection, schedule: Q01DX001 (ip), vehicle: carboxymethylcellulose (CMC)): 101 % of control
T/C (dose: 40.0 mg/kg/injection, schedule: Q01DX001 (ip), vehicle: carboxymethylcellulose (CMC)): 101 % of control
